Patent US12246012B2, “Method for treating nervous system injuries using boldine and derivatives thereof” (United States Government as Represented by the Department …, priority 2020, dated 2025)

Tests used:
[1] = test system: C57BL6 mice, moderate contusion spinal cord injury (SCI) at T9-T10; assay: Basso Mouse Scale (BMS) open-field locomotor function after moderate contusion SCI; assay type: in vivo; details: oral, twice daily starting at 4-dpi; at 13 dpi; vs vehicle-treated SCI mice; N=5
Procedure: (§1) FIGS. 1A-C show the effects of boldine on locomotor functional recovery of C57BL6 mice after moderate spinal cord injury (SCI) at the interspace between thoracic vertebrae T9 and T10.
(§2) Function was determined by behavioral testing using both the Basso Mouse Scale (BMS) score (FIG. 1A) and the ladder rung walk test (LRWT) (FIG. 1B). While sham mice had normal BMS scores a few days after laminectomy, the BMS scores for contusion-SCI mice were much lower. […] (N=5; ANOVA *p<0.05 and **p<0.005 respectively).

[2] = test system: C57BL6 mice, moderate contusion spinal cord injury (SCI) at T9-T10; assay: Ladder rung walk test (LRWT) after moderate contusion SCI; assay type: in vivo, mouse; details: oral, twice daily starting at 4-dpi; at 13-dpi; vehicle-treated SCI mice 83%; N=5
Procedure: as §1, §2

[3] = test system: caspase-1 mRNA; assay: Hippocampus mRNA levels by qPCR after contusion SCI; assay type: in vivo, mouse; details: contusion SCI mice, 13 dpi, N=3
Procedure: (§3) FIGS. 2A-D show plots of mRNA levels of Cx43 (2A), NLRP3 (2B), ASC (2C), and caspase-1 (2D) in the hippocampus of sham mice and those having contusion spinal cord injury (SCI) with and without boldine treatment. mRNA levels in the hippocampus were determined by qPCR at 13 dpi using tissues from mice that underwent laminectomy (Sham) or moderate (50 kdyne) contusion SCI. ((*p<0.05 by one-way ANOVA, N=3 per group).
(§4) In rats, a spinal cord injury (SCI) can result in cognitive deficits that are associated with activation in brain regions linked to pain processing and cognition of microglia and astrocytes as well as associated with upregulation of a gene involved in inflammation (Wu et al. 2013; Wu et al. 2014). Such changes may drive central pain in neuropathic pain syndromes. To determine whether boldine mitigates such changes, mRNA expression of Cx43 and genes involved in inflammasome assembly and activity were determined in mouse brains. While SCI increased caspase-1 in the hippocampus. […] These studies indicate that boldine can reduce neuropathic pain following spinal cord injury (SCI) associated with reductions in brain and spinal cord of expression of pro-inflammatory cytokines and chemokines linked to pathological pain.

[4] = test system: CCL2 mRNA; assay: Thalamus mRNA levels by qPCR after contusion SCI; assay type: in vivo, mouse; details: compared to vehicle-treated animals after contusion SCI; FIG. 3 (thalamus); N=3
Procedure: as §3
(§5) FIGS. 3A-B are plots showing that boldine normalizes spinal cord injury (SCI)-induced elevation of IL-1B mRNA levels in the thalamus. mRNA levels were determined as described with reference to FIG. 2. (A) IL-1β; (B) CCL2. (*p<0.05 by ANOVA, N=3).
as §4

[5] = test system: IL-1β mRNA; assay: Thalamus mRNA levels by qPCR after contusion SCI; assay type: in vivo, mouse
Procedure: as §3, §5, §4

[6] = test system: Ccl2; assay: Chemokine gene expression in spinal cord tissue of SCI mice; assay type: in vivo, mouse; details: C57B6 SCI animals at 14-dpi, vs vehicle; N=3, ANOVA p=0.091
Procedure: (§6) Additional studies were performed using tissues harvested from the mice for which behavioral testing data showing effects of boldine on Basso Mouse Scale and ladder rung walk test were collected. RNA-seq analysis was performed on spinal cord segments from SCI mice at 14-dpi treated with boldine or vehicle starting at 4-dpi (N=3 for each). Differentially expressed genes (DEGs) were clustered by their gene ontology (GO) and enrichment of GO terms was tested using a Fisher's exact test (GeneSCF v1.1-p2). Enriched DEGs were involved in pathways related to neutrophil activation and aggregation, inflammatory responses and astrocyte development.
(§7) Genes from a list of the top DEGs from the RNA-seq analysis were considered and tested for differences in gene expression of pro-inflammatory chemokines Ccl2 and Ccl3 between vehicle and boldine treated spinal cord tissues from C57B6 SCI animals at 14-dpi. Laminectomy-only (Sham) animals as were used as controls.

[7] = test system: Ccl3; assay: as above; assay type: in vivo, mouse; details: C57B6 SCI animals at 14-dpi, vs vehicle; N=3, ANOVA p=0.085
Procedure: as §6, §7

[8] = test system: neurite outgrowth marker GAP-43; assay: Immunofluorescence staining of injured spinal cords; assay type: in vivo, mouse; details: injured spinal cord transverse sections, SCI mice at 14-dpi, vs vehicle
Procedure: Immunofluorescence staining was performed on injured spinal cords of vehicle and boldine treated SCI mice at 14-dpi. 30-micron transverse sections were used to evaluate differences in the labeling of the neurite outgrowth marker GAP-43.

[9] = test system: CCL2 mRNA in LPS astrocytes; assay: mRNA expression after LPS-induced inflammatory response in astrocytic primary cell cultures; assay type: cell-based; details: compared to vehicle-treated LPS astrocytes
Procedure: To model effects of boldine on release of chemokines and other mediators, changes in mRNA expression after lipopolysaccharide (LPS)-induced inflammatory responses were analyzed using astrocytic primary cell cultures.

COc1cc2c(cc1O)CC1c3c(cc(O)c(OC)c3-2)CCN1C (racemic) [boldine]
BMS scores [1]: significantly increased
LRWT incorrect steps [2]: 13%
SCI-induced increase of caspase-1 mRNA in the hippocampus [3]: appeared to be corrected
reduction of mRNA levels of CCL2 [4]: 47.2%
reduction of mRNA levels of IL-10 ([5]; compared to vehicle-treated animals after contusion SCI, FIG. 3 (thalamus), N=3): 65.5%
SCI-induced elevation of IL-1B mRNA levels in the thalamus ([5]; contusion SCI mice, qPCR, N=3 (FIG. 3 legend)): normalizes
Ccl2 gene expression in spinal cord tissue [6]: apparent decrease which did not reach our threshold for significance
Ccl3 gene expression in spinal cord tissue [7]: apparent decrease which did not reach our threshold for significance
GAP43 immunofluorescence [8]: dramatically increased
reduction of mRNA levels of CCL2 [9]: 38%
